Results on two compounds are retold here after ChEMBL document CHEMBL4257591 (J Med Chem, 2018).

Converted amounts (≈) assume the structure as drawn. The source made the active and inactive calls. Residues, ends and D or L forms follow the SMILES beside them.

For data set [1], the system named is Staphylococcus aureus. In words: Induction of cytoplasmic membrane depolarization in Staphylococcus aureus KCTC 1621 at 2 to 8 times MIC concentration by DiSC3(5)-dye based fluorescence spectrophotometry. It counts as functional, organism-based.
Data set [2] in a line: Hemolytic activity in sheep RBC assessed as free hemoglobin level up to 256 uM by ELISA relative to control. As to conditions: sheep red blood cells (erythrocytes), read-out: Activity. Type of data set: ADME, cell-based, Ovis aries, Erythrocyte. A general note: In an ELISA, binding on a coated surface is turned into a signal by an enzyme label.
Data set [3] deals with Escherichia coli. As to the kind of experiment: Induction of membrane permeabilization in Escherichia coli KCTC 1682 assessed as PI-positive cells at 12.5 uM after 1 to 2 hrs by propidium iodide-staining based flow cytometry (reference value: 2.36%). It counts as functional.
Data set [4] relates to Staphylococcus aureus. In words: Antimicrobial activity against methicillin-resistant Staphylococcus aureus CCARM 3089 after 18 hrs. It counts as functional. As to conditions: CCARM 3089, 18 h.
In data set [5] the test system is Pseudomonas aeruginosa. As to the kind of experiment: Antimicrobial activity against Pseudomonas aeruginosa KCTC 1637 after 18 hrs. Type of data set: functional. As to conditions: KCTC 1637, 18 h.
Data set [6] relates to RAW264.7. As to the kind of experiment: Cytotoxicity against mouse RAW264.7 cells at 512 uM after 48 hrs by MTT assay. It counts as cell-based. As to conditions: raw264.7, 48 h.
The test system of data set [7] is Staphylococcus aureus. As to the kind of experiment: Antimicrobial activity against methicillin-resistant Staphylococcus aureus CCARM 3090 after 18 hrs. To be noted: CCARM 3090, 18 h. It counts as functional.
Another data set deals with Bacillus subtilis. In words: Antimicrobial activity against Bacillus subtilis KCTC 3068 after 18 hrs. It counts as functional. To be noted: KCTC 3068, 18 h.
Another data set relates to DNA. As to the kind of experiment: Binding affinity to Escherichia coli pBR322 DNA assessed as inhibition of DNA migration at 16 uM after 1 hr by agarose gel electrophoresis and UV spectroscopy. Type of data set: nucleic-acid assay.
Data set [8] relates to Escherichia coli. In words: Antimicrobial activity against Escherichia coli KCTC 1682 after 18 hrs. It counts as functional. As to conditions: KCTC 1682, 18 h.
Data set [9] deals with Staphylococcus epidermidis. In words: Antimicrobial activity against Staphylococcus epidermidis KCTC 1617 after 18 hrs. As to conditions: KCTC 1617, 18 h. It counts as functional.
Data set [10] concerns Staphylococcus aureus. In words: Bactericidal activity against Staphylococcus aureus KCTC 1621 at MIC concentration after 30 mins by time kill assay. Type of data set: functional, organism-based.
The test system of data set [11] is Staphylococcus aureus. As to the kind of experiment: Induction of membrane permeabilization in Staphylococcus aureus KCTC 1621 at 2 to 8 times MIC concentration up to 300 secs by SYTOX green uptake assay. Type of data set: functional, organism-based.
For a further data set, the system named is Enterococcus faecium. As to the kind of experiment: Antimicrobial activity against vancomycin-resistant Enterococcus faecium ATCC 51559 after 18 hrs. It counts as functional. As to conditions: ATCC 51559, 18 h.
For data set [12], the system named is Escherichia coli. As to the kind of experiment: Bactericidal activity against Escherichia coli KCTC 1682 at MIC concentration after 120 to 180 mins by time kill assay. It counts as functional, organism-based.
Data set [13] relates to Staphylococcus aureus. In words: Antimicrobial activity against methicillin-resistant Staphylococcus aureus CCARM 3095 after 18 hrs. It counts as functional. To be noted: CCARM 3095, 18 h.
Data set [14] relates to Staphylococcus aureus. As to the kind of experiment: Antimicrobial activity against Staphylococcus aureus KCTC 1621 after 18 hrs. Type of data set: functional. As to conditions: KCTC 1621, 18 h.
For the next data set, the system named is Salmonella typhimurium. In words: Antimicrobial activity against Salmonella typhimurium KCTC 1926 after 18 hrs. Type of data set: functional, Salmonella enterica subsp. enterica serovar Typhimurium. As to conditions: Salmonella enterica, KCTC 1926, 18 h.
For data set [15], the system named is Pseudomonas aeruginosa. In words: Antimicrobial activity against multidrug-resistant Pseudomonas aeruginosa CCARM 2095 after 18 hrs. It counts as functional. As to conditions: CCARM 2095, 18 h.
Data set [16] is described as follows: Hemolytic activity in sheep RBC assessed as free hemoglobin level at 16 uM by ELISA relative to control. Type of data set: ADME, cell-based, Ovis aries, Erythrocyte. To be noted: sheep red blood cells (erythrocytes), read-out: Activity.
Data set [17] relates to Escherichia coli. As to the kind of experiment: Induction of membrane permeabilization in Escherichia coli KCTC 1682 assessed as PI-positive cells at 4 uM after 1 to 2 hrs by propidium iodide-staining based flow cytometry (reference value: 2.36%). It counts as functional. On the technique in general: Flow cytometry measures light scatter and fluorescence of single cells or particles in a stream.

For data set [18], the system named is Staphylococcus aureus. In words: Induction of cytoplasmic membrane depolarization in Staphylococcus aureus KCTC 1621 at 2 times MIC concentration by DiSC3(5)-dye based fluorescence spectrophotometry. Type of data set: functional, organism-based.
Data set [19] deals with RAW264.7. In words: Cytotoxicity against mouse RAW264.7 cells at 32 uM after 48 hrs by MTT assay relative to control. It counts as cell-based. As to conditions: raw264.7, 48 h. A general note: Formazan colour is commonly taken as a measure of viable cells.
Data set [20] concerns Staphylococcus aureus. In words: Induction of membrane permeabilization in Staphylococcus aureus KCTC 1621 at 2 times MIC concentration up to 300 secs by SYTOX green uptake assay. Type of data set: functional, organism-based.

As a reminder, the MIC is the smallest concentration in the dilution series that meets the test's criterion for growth inhibition. A low value points to inhibition by little substance.

Turning to `CC[C@H](C)[C@H](NC(=O)[C@@H](NC(=O)[C@H](Cc1cnc[nH]1)NC(=O)[C@H](CCCNC(=N)N)NC(=O)[C@H](C)NC(=O)[C@H](CCCNC(=N)N)NC(=O)[C@H](CC(C)C)NC(=O)[C@H](CO)NC(=O)[C@H](C)NC(=O)[C@H](CO)NC(=O)[C@H](CC(C)C)NC(=O)[C@@H](N)CC(N)=O)[C@@H](C)O)C(=O)N1CCC[C@H]1C(=O)N[C@@H](CCC(N)=O)C(=O)N[C@@H](CO)C(=O)N[C@@H](CCCNC(=N)N)C(=O)N[C@@H](CCCCN)C(=O)N[C@@H](Cc1ccccc1)C(=O)NCC(=O)N[C@@H](CCCNC(=N)N)C(=O)N[C@@H](CCCNC(=N)N)C(N)=O` (H-NLSASLRARHTIPQSRKFGRR-NH2), the outcome with Staphylococcus aureus [1] and with Staphylococcus aureus [11] was inactive. Further, the hemolysis in data set [2] is below 1%. The Activity in the data set with Escherichia coli [3] was 3.66%; in the data set on RAW264.7 [6] it was “Non-Toxic”. For the same compound, the MIC in the data set with Staphylococcus aureus [4] stood at 25 µM (≈ 61.3 µg/mL); against Pseudomonas aeruginosa [5] it was 6.3 µM (≈ 15.4 µg/mL); in the data set on Staphylococcus aureus [7], 50 µM (≈ 123 µg/mL); in the data set with Bacillus subtilis, 12.5 µM (≈ 30.6 µg/mL); in the data set with Escherichia coli [8] it was 6.3 µM (≈ 15.4 µg/mL); in data set [9] it was 6.3 µM (≈ 15.4 µg/mL). Besides, the MIC came to 50 µM (≈ 123 µg/mL) in the data set with Enterococcus faecium; 25 µM (≈ 61.3 µg/mL) against Staphylococcus aureus [13]; 12.5 µM (≈ 30.6 µg/mL) in the data set on Staphylococcus aureus [14]; 6.3 µM (≈ 15.4 µg/mL) with Salmonella typhimurium; 12.5 µM (≈ 30.6 µg/mL) in the data set with Pseudomonas aeruginosa [15]. Further, the result with DNA, in the data set on Staphylococcus aureus [10] and with Escherichia coli [12] was Active.
Regarding `CC[C@H](C)[C@H](NC(=O)CN)C(=O)NCC(=O)N[C@@H](C)C(=O)N[C@H](C(=O)N[C@@H](CC(C)C)C(=O)N[C@@H](CCCCN)C(=O)N[C@H](C(=O)N[C@@H](CC(C)C)C(=O)N[C@H](C(=O)N[C@H](C(=O)NCC(=O)N[C@@H](CC(C)C)C(=O)N1CCC[C@H]1C(=O)N[C@@H](C)C(=O)N[C@@H](CC(C)C)C(=O)N[C@H](C(=O)N[C@@H](CO)C(=O)N[C@@H](Cc1c[nH]c2ccccc12)C(=O)N[C@H](C(=O)N[C@@H](CCCCN)C(=O)N[C@@H](CCCNC(=N)N)C(=O)N[C@@H](CCCCN)C(=O)N[C@@H](CCCNC(=N)N)C(=O)N[C@@H](CCC(N)=O)C(=O)N[C@@H](CCC(N)=O)C(N)=O)[C@@H](C)CC)[C@@H](C)CC)[C@@H](C)O)[C@@H](C)O)C(C)C)C(C)C` [MELITTIN], in data set [16], the hemolysis at 16 µM is 63%. The Activity in the data set with Escherichia coli [17] is on record as 55.5%; with RAW264.7 [19], 100%. For the same compound, in the data set with Staphylococcus aureus [11], the outcome was inactive. The outcome with Staphylococcus aureus [18] and in the data set on Staphylococcus aureus [20] was Active.
